Source: patent publication US20250235451A1, “Methods of Delaying Pain Progression And Treating Prostate Cancer” (ASTRAZENECA AB, priority 2020, published 2025)

Assays:
[1] = system: metastatic castration-resistant prostate cancer (mCRPC) with a qualifying alteration in any of 15 prespecified HRR genes; assay: Phase III trial NCT02987543, efficacy in the overall population (Cohorts A + B); type: in vivo, human
Source text: (§1) Patient population. In clinical trial NCT02987543, eligible patients were male, aged ≥18 years with histological diagnosis of prostate cancer, confirmed mCRPC, whose disease had progressed after one or more treatments with new hormonal agent (NHA) (e.g., enzalutamide or abiraterone, administered for metastatic or non-metastatic castration-resistant prostate cancer, as well as metastatic hormone-sensitive prostate cancer). Prior taxane chemotherapy was allowed. Men without prior surgical castration were required to continue luteinizing-hormone-releasing hormone analog therapy. Patients had adequate organ and bone marrow function. Full eligibility criteria are provided in the trial protocol. All patients provided written informed consent. An investigational clinical trial assay, based on the FoundationOne® CDx next-generation sequencing test was used to prospectively identify patients with qualifying deleterious or suspected deleterious alterations in one or more of the 15 prespecified genes selected for their direct or indirect role in HRR: BRCA1, BRCA2, ATM, BRIP1, BARD1, CDK12, CHEK1, CHEK2, FANCL, PALB2, PPP2R2A, RAD51B, RAD51C, RAD51D, and RAD54L. Tumor testing was conducted centrally using archival or recent biopsy tissue from primary or metastatic disease. Presence of deleterious or suspected deleterious alteration by the central tumor test was required for eligibility, irrespective of the zygosity of the alteration.
(§2) Study design. This was a prospective, randomized, open-label, Phase III study. Eligible patients were included in one of two cohorts depending on their qualifying gene alteration. Cohort A included patients with BRCA1, BRCA2 and/or ATM alterations, regardless of co-occurring qualifying alterations in any of the other genes. Cohort B included patients with alterations in any of the other 12 genes. The overall population comprised patients from Cohort A and Cohort B (i.e., patients with a qualifying alteration in any of the 15 prespecified genes).
(§3) Randomization was stratified by previous taxane use (yes/no) and measurable disease (yes/no). Treatment was continued until objective radiographic disease progression assessed by a third-party vendor blinded independent central review (BICR), or unacceptable toxicity. Patients randomized to the control arm were eligible to cross over to olaparib treatment upon BICR-confirmed radiographic progression.
(§4) The primary endpoint was rPFS assessed by BICR in patients with BRCA1, BRCA2, and/or ATM alterations (Cohort A). rPFS was defined as the time from randomization until soft-tissue disease progression (by Response Evaluation Criteria in Solid Tumors (RECIST) v1.1), bone lesion progression (by Prostate Cancer Working Group 3 (PCWG3) criteria) or death. A prespecified sensitivity analysis of rPFS based on investigator assessment was performed. rPFS by BICR in the overall population was also a secondary endpoint.
(§5) Additional secondary endpoints evaluated included confirmed radiographic objective response rate (ORR), time to pain progression (TTPP), overall survival (OS), prostate-specific antigen (PSA) response (PSA50 response) and circulating tumor cell (CTC) conversion rate. ORR was assessed among evaluable patients who had measurable disease at baseline as assessed by BICR using RECIST v1.1 (responses were also assessed by BICR using RECIST v1.1, were confirmed and required absence of progression on bone scan assessed by PCWG3). OS is defined as time from randomization to time point at which death due to any cause occurs. A pre-specified sensitivity analysis for the crossover effect on OS was performed. Safety was assessed in the overall population through reporting of Common Terminology Criteria for Adverse Events (CTCAE) v4.0 and collection of clinical chemistry and hematology parameters.
(§6) Time to pain progression (TTPP) was based on Brief Pain Inventory-Short Form item 3 ('worst pain in 24 hours) and initiation of opiate analgesic use (Analgesic Quantification Algorithm score). […]

[2] = system: metastatic castration-resistant prostate cancer (mCRPC) with BRCA1, BRCA2, and/or ATM alterations; assay: Phase III trial NCT02987543, efficacy in Cohort A (alterations in BRCA1, BRCA2 and/or ATM); type: in vivo, human
Source text: as §1, §2, §3, §4, §5, §6

[3] = Phase III trial NCT02987543, safety (adverse events, CTCAE v4.0) in the overall population; type: in vivo
Protocol: as §5
Blood samples for PSA assessments were collected at baseline, every 4 weeks until week 24, then every 8 weeks until study treatment discontinuation, and for CTC analyses were collected at baseline and then every 8 weeks until study treatment discontinuation. Overall survival was assessed every 12 weeks after progression. Adverse events (AEs) were graded according to the National Cancer Institute Common Terminology Criteria for Adverse Events version 4.0. […]
Statistical analysis. Efficacy data were analyzed on an intent-to-treat basis and safety data were reported for all patients who received ≥1 dose of trial treatment. […] For time-to-event endpoints, rPFS, time to pain progression, and OS, P-values were calculated using log-rank tests, stratified by stratification factors. […] The Kaplan-Meier method was used to calculate medians for each trial arm. Logistic regression models adjusted for stratification factors were used to analyze objective responses. A multiple-testing procedure was used to control for the study-wide type 1 error rate. […] For OS, the two-sided 5% level of alpha was split at the interim (0.01) and final (0.047) analyses using an O′Brien-Fleming spending function.

[4] = overall population, evaluable patients
[5] = overall population, olaparib vs control

O=C(c1cc(Cc2n[nH]c(=O)c3ccccc23)ccc1F)N1CCN(C(=O)C2CC2)CC1 [Olaparib, 4-[(3-{[4-(cyclopropane-carbonyl)piperazine-1-yl]carbonyl}-4-fluorophenyl)methyl]-2H-phthalazin-1-one]
Median TTPP (months), sensitivity analysis including any death as an event ([1]; Cohorts A + B (overall population)): 11.89 months | TTPP Pain severity, Events (%) ([1]; overall population): 9.4% | TTPP Pain severity, Events n ([1]; overall population): 24 n | TTPP Worst pain, Events (%) ([1]; overall population): 12.5% | TTPP Worst pain, Events n ([1]; overall population): 32 n | Time to Opiate use, Events (%) ([1]; overall population): 37.1% | Time to Opiate use, Events n ([1]; overall population): 65 n | Time to Opiate use, Median (m) ([1]; overall population): 18.0 m | median rPFS by BICR ([1]; overall population): 5.82 months | TTPP Pain severity, 6-month rate (%) ([1]; overall population, 6 months): 88.7% | TTPP Worst pain, 6-month rate (%) (free of pain progression) ([1]; overall population, 6 months): 85.2% | Time to Opiate use, 6-month rate (%) ([1]; overall population, 6 months): 25% | TTPP Pain severity, 12-month rate (%) ([1]; overall population, 12 months): 81.0% | TTPP Worst pain, 12-month rate (%) ([1]; overall population, 12 months): 76.3% | Time to Opiate use, 12-month rate (%) ([1]; overall population, 12 months): 41% | Median OS at interim analysis ([1]; overall population, data maturity 41%): 17.51 months | CTC conversion [1, 4]: 26.8% | PSA50 response [1, 4]: 30.0% | confirmed objective response rate [1, 4]: 21.7% | TTPP Pain severity, HR [1, 5]: 0.71 | TTPP Worst pain, HR [1, 5]: 0.64 | Time to Opiate use, HR [1, 5]: 0.67 | median progression free survival greater than for subjects receiving the standard of care treatment ([1]; overall subject population): at least 2 months | Median TTPP (months), sensitivity analysis including any death as an event [2]: 17.22 months | median OS (interim analysis) ([2]; data maturity 38%): 18.50 months | CTC conversion ([2]; evaluable patients): 29.9% | PSA50 response ([2]; evaluable patients): 43.1% | confirmed objective response rate ([2]; evaluable patients): 33.3% | reduction in risk for disease progression or death ([2]; olaparib vs control): 66% | median rPFS (radiographic progression-free survival) by BICR ([2]; primary endpoint): 7.39 months | Anemia, All grades, (%) [3]: (46.5) % | Anemia, Grade ≥3, (%) [3]: (21.5) % | Any adverse event, All grades, (%) [3]: (95.3) % | Any adverse event, Grade ≥3, (%) [3]: (50.8) % | Arthralgia, All grades, (%) [3]: (9.4) % | Arthralgia, Grade ≥3, (%) [3]: (0.4) % | Back pain, All grades, (%) [3]: (13.7) % | Back pain, Grade ≥3, (%) [3]: (0.8) % | Cough, All grades, (%) [3]: (10.9) % | Decreased appetite, All grades, (%) [3]: (30.1) % | Decreased appetite, Grade ≥3, (%) [3]: (1.2) % | Diarrhea, All grades, (%) [3]: (21.1) % | Diarrhea, Grade ≥3, (%) [3]: (0.8) % | Discontinuation of intervention due to adverse event, (%) [3]: (18.0) % | Dose reduction due to adverse event, (%) [3]: (22.3) % | Dyspnea, All grades, (%) [3]: (10.2) % | Dyspnea, Grade ≥3, (%) [3]: (2.3) % | Fatal adverse event, (%) [3]: (3.9) % | Fatigue & asthenia, All grades, (%) [3]: (41.0) % | Fatigue & asthenia, Grade ≥3, (%) [3]: (2.7) % | Interruption of intervention due to adverse event, (%) [3]: (44.9) % | Nausea, All grades, (%) [3]: (41.4) % | Nausea, Grade ≥3, (%) [3]: (1.2) % | Peripheral edema, All grades, (%) [3]: (12.5) % | Urinary tract infection, All grades, (%) [3]: (7.0) % | Urinary tract infection, Grade ≥3, (%) [3]: (1.6) % | Vomiting, All grades, (%) [3]: (18.4) % | Vomiting, Grade ≥3, (%) [3]: (2.3) % | patients reporting new primary malignancies [3]: 1 n | pulmonary embolism events, % [3]: 4.3% | pulmonary embolism events, number ([3]; none were fatal): 11
